In brackets after ≈: the same amount, converted by molar mass.
What was measured:
[1] = Antioxidant activity assessed as inhibition rate constant for reaction with peroxyl radicals; assay type: functional
[2] = biological target: T1, Aryl hydrocarbon receptor (Homo sapiens, UniProt P35869); assay: Binding affinity to aryl hydrocarbon receptor (unknown origin); details: read-out: Ki(app)
T1 sequence (P35869 whole entry): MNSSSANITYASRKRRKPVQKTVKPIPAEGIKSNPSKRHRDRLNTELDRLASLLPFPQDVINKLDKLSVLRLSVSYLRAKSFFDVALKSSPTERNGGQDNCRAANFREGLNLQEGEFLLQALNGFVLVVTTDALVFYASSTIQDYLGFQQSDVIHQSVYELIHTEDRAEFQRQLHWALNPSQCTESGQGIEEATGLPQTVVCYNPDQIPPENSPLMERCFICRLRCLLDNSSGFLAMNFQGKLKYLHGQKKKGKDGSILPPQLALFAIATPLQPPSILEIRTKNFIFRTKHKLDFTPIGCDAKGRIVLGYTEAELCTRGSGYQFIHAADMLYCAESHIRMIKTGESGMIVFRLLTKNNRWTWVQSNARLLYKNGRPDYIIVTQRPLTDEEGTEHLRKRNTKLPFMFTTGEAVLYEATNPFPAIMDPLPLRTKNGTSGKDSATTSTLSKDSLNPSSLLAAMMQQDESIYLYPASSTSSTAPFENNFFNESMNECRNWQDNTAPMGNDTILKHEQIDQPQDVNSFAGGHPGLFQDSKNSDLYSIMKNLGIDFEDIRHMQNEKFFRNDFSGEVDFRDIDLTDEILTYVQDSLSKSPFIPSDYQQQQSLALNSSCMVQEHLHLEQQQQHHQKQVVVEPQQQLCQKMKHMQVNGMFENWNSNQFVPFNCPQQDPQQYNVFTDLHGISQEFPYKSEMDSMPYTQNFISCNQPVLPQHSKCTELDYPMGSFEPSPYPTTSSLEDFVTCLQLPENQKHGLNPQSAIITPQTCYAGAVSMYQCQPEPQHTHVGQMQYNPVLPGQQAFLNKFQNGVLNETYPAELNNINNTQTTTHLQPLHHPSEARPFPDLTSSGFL

[3] = Antioxidant activity assessed as inhibition rate constant in AAPH-induced human LDL peroxidation; assay type: functional
[4] = Antioxidant activity assessed as time required to inhibit Cu2+-induced human LDL peroxidation; assay type: functional
[5] = Antioxidant activity assessed as time required to inhibit AAPH-induced human LDL peroxidation; assay type: functional
[6] = Antioxidant activity assessed as superoxide scavenging activity in riboflavin light-NBT system; assay type: functional
[7] = tested on: Liver microsome; assay: Antioxidant activity in Rattus norvegicus Wistar (rat) liver microsomes assessed as inhibition of Fe2+/ascorbate-induced lipid peroxidation incubated for 10 min prior to Fe2+/ascorbate induction measured after 60 min by TBARS assay; assay type: functional
[8] = Antioxidant activity assessed as decrease in initial quantity of DPPH measured up to 6 hr by spectrophotometric analysis; assay type: functional
[9] = Antioxidant activity in CTAB micelles assessed as time required to inhibit AAPH-induced linoleic acid peroxidation; assay type: functional
[10] = Antioxidant activity in CTAB micelles assessed as inhibition rate constant for AAPH-induced linoleic acid peroxidation; assay type: functional
[11] = Antioxidant activity in SDS micelles assessed as time required to inhibit AAPH-induced linoleic acid peroxidation; assay type: functional
[12] = Antioxidant activity in SDS micelles assessed as inhibition rate constant for AAPH-induced linoleic acid peroxidation; assay type: functional
[13] = tested on: Radical scavenging activity; assay: Antioxidant activity assessed as inhibition of DPPH free radical formation; assay type: functional; design: concentration or dose not given beside the values; details: dose or concentration not given here
[14] = Antioxidant activity assessed as time required to induce lipid oxidation by Rancimat method; assay type: functional

Compound: COc1cc(/C=C\c2cc(C(C)(C)C)c(O)c(C(C)(C)C)c2)cc(OC)c1
- INH [1]: 2.3 ×10⁴ L/mol/s

Compound: CCOc1ccc(/C=C\c2cc(OC)cc(OC)c2)cc1
- Ki [2]: 12 nM

Compound: COc1cc(/C=C/c2ccc(O)c(OC)c2)ccc1O
- INH [3]: 4.1 ×10⁵ L/mol/s
- TIME [4]: 1.47 h
- TIME [5]: 0.85 h

Compound: COc1cc(/C=C\c2ccc(O)c(O)c2)cc(OC)c1
- INH [1]: 76 ×10⁴ L/mol/s

Compound: Oc1ccc(/C=C/c2ccc(O)cc2O)cc1
- INH [3]: 3.3 ×10⁵ L/mol/s
- TIME [4]: 0.717 h
- TIME [5]: 0.458 h

Compound: O=C(/C=C/c1ccc(O)c(O)c1)Oc1cc(O)cc(/C=C/c2ccc(O)cc2)c1
- IC50 [6]: 9.2 µg/mL (≈ 23.6 µM)

Compound: Oc1ccc(/C=C/c2ccccc2)c(O)c1
- INH [3]: 6.2 ×10⁵ L/mol/s
- TIME [4]: 0.883 h
- TIME [5]: 0.292 h

Compound: Oc1ccc(/C=C/c2ccc(O)c(O)c2)cc1O
- INH [3]: 3.7 ×10⁵ L/mol/s
- TIME [4]: 1.78 h
- TIME [5]: 0.85 h

Compound: COc1ccc(/C=C\c2cc(OC)cc(OC)c2)cc1 [8Z-3,4',5-TRIMETHOXYSTILBENE]
- Ki [2]: 12 nM

Compound: COc1ccc(/C=C/c2cc(O)cc(O)c2)cc1 [RESVERATROL 4'-METHYL ETHER]
- EC50 [7]: 661 µM
- EC50 [8]: 48.6 µM

Compound: Oc1ccc(/C=C/c2ccc(O)cc2)cc1
- INH [3]: 8.2 ×10⁵ L/mol/s
- TIME [4]: 1.28 h
- TIME [5]: 0.308 h
- TIME [9]: 2.6 ×10³ s
- INH [10]: 0.8 ×10⁴ L/mol/s
- TIME [11]: 3.2 ×10³ s
- INH [12]: 1.4 ×10⁴ L/mol/s

Compound: Oc1ccc(/C=C\c2cc(O)cc(O)c2)cc1 [CIS-RESVERATROL]
- EC50 [7]: 241 µM
- INH [1]: 7.4 ×10⁴ L/mol/s

Compound: Oc1cc(/C=C/c2cc(O)c(O)c(Br)c2)cc(O)c1O
- IC50 [6]: 8.1 µg/mL (≈ 23.9 µM)

Compound: Oc1ccc(/C=C/c2ccccc2)cc1
- TIME [9]: 1.7 ×10³ s
- INH [10]: 1 ×10⁴ L/mol/s
- TIME [11]: 2.1 ×10³ s
- INH [12]: 1.2 ×10⁴ L/mol/s

Compound: Oc1cc(O)cc(/C=C/c2cc(O)cc(O)c2)c1
- inhibition [13]: 46.5%
- TIME [14]: 3.7 h

Compound: COc1cc(/C=C/c2ccc(O)c(OC)c2)cc(OC)c1
- INH [1]: 10 ×10⁴ L/mol/s

Compound: COc1cc(/C=C\c2ccc(O)cc2)cc(OC)c1
- INH [1]: 6.3 ×10⁴ L/mol/s

Compound: O=C(/C=C/c1cc(O)c(O)c(O)c1)Oc1cc(O)cc(/C=C/c2ccc(O)cc2)c1
- IC50 [6]: 10 µg/mL (≈ 24.6 µM)

Compound: COc1ccc(/C=C\c2cc(Cl)cc(Cl)c2)cc1
- Ki [2]: 12 nM

Compound: Clc1ccc(/C=C\c2cc(Cl)cc(Cl)c2)cc1
- Ki [2]: 12 nM

Compound: Oc1ccc(/C=C/c2cc(O)c(O)c(O)c2)cc1O
- IC50 [6]: 3 µg/mL (≈ 11.5 µM)

Compound: CCCCOc1ccc(/C=C\c2cc(OC)cc(OC)c2)cc1
- Ki [2]: 12 nM

Compound: COc1cc(/C=C/c2cc(O)c(O)c(C(C)(C)C)c2)cc(OC)c1
- INH [1]: 240 ×10⁴ L/mol/s

Compound: COc1cc(/C=C/c2ccc(O)cc2)cc(OC)c1 [PTEROSTILBENE]
- EC50 [7]: 355 µM
- INH [1]: 13 ×10⁴ L/mol/s
- EC50 [8]: 30.1 µM

Compound: Oc1cc(/C=C/c2ccccc2)cc(O)c1O
- TIME [9]: 2.9 ×10³ s
- INH [10]: 1.3 ×10⁴ L/mol/s
- TIME [11]: 2.4 ×10³ s
- INH [12]: 3.1 ×10⁴ L/mol/s

Compound: Oc1ccc(/C=C/c2cc(O)cc(O)c2)cc1 [RESVERATROL]
- EC50 [7]: 135 µM
- inhibition [13]: 55.1%
- TIME [14]: 12.3 h
- INH [3]: 4.4 ×10⁵ L/mol/s
- TIME [4]: 0.967 h
- TIME [5]: 0.397 h
- INH [1]: 14 ×10⁴ L/mol/s
- IC50 [6]: 106 µg/mL (≈ 464 µM)
- TIME [9]: 2.7 ×10³ s
- INH [10]: 0.7 ×10⁴ L/mol/s
- TIME [11]: 3.1 ×10³ s
- INH [12]: 1.3 ×10⁴ L/mol/s

Compound: Oc1cc(O)cc(/C=C/c2ccc(O)c(O)c2)c1
- inhibition [13]: 67.1%
- TIME [14]: 60.3 h

Compound: Oc1cc(O)cc(/C=C/c2cc(O)c(O)c(O)c2)c1
- inhibition [13]: 92.9%
- TIME [14]: 48.1 h

Compound: Oc1cc(O)cc(/C=C/c2ccccc2)c1
- inhibition [13]: 29.8%
- TIME [14]: 2.3 h
- INH [3]: 3.3 ×10⁵ L/mol/s
- TIME [4]: 0.717 h
- TIME [5]: 0.362 h
- TIME [9]: 2.4 ×10³ s
- INH [10]: 0.5 ×10⁴ L/mol/s
- TIME [11]: 1.5 ×10³ s
- INH [12]: 1.7 ×10⁴ L/mol/s

Compound: Oc1ccc(/C=C/c2cc(O)c(O)c(O)c2)cc1
- inhibition [13]: 92.9%
- TIME [14]: 43 h

Compound: COc1cc(/C=C/c2cc(C(C)(C)C)c(O)c(C(C)(C)C)c2)cc(OC)c1
- INH [1]: 6.8 ×10⁴ L/mol/s

Compound: COc1cc(/C=C\c2ccc(O)c(OC)c2)cc(OC)c1
- INH [1]: 5.7 ×10⁴ L/mol/s

Compound: Oc1ccc(/C=C/c2ccc(O)c(O)c2)cc1
- INH [3]: 4.2 ×10⁵ L/mol/s
- TIME [4]: 1.75 h
- TIME [5]: 0.62 h
- TIME [9]: 5.1 ×10³ s
- TIME [11]: 7.2 ×10³ s

Compound: Oc1cc(/C=C/c2cc(O)c(O)c(O)c2)cc(O)c1O
- IC50 [6]: 0.9 µg/mL (≈ 3.26 µM)

Compound: COc1cc(/C=C/c2ccc(O)c(O)c2)cc(OC)c1
- INH [1]: 110 ×10⁴ L/mol/s

Compound: O=C(Oc1cc(O)cc(/C=C/c2ccc(O)cc2)c1)c1cc(O)c(O)c(O)c1
- IC50 [6]: 16 µg/mL (≈ 42.1 µM)

Compound: Oc1ccc(/C=C/c2ccccc2)cc1O
- INH [3]: 4.9 ×10⁵ L/mol/s
- TIME [4]: 1.77 h
- TIME [5]: 0.65 h
- TIME [9]: 4.1 ×10³ s
- INH [10]: 0.9 ×10⁴ L/mol/s
- TIME [11]: 4.9 ×10³ s
- INH [12]: 2.9 ×10⁴ L/mol/s
